Results published in the supplement of paper PMC11061612.

Assays:
AZD5991 = compound: Cc1c2c(nn1C)CSCc1cc(n(C)n1)CSc1cc(c3ccccc3c1)OCCCc1c(C(=O)O)n(C)c3c-2c(Cl)ccc13 [AZD5991]; details: max 1 µM
In short: (§1)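 After 24 hours at 37°C and 5% CO2 in 1536-well plates holding 7.5 μl of DMEM/F12 or RPMI with 10% FBS, cancer cell lines were dosed for 72 hours, with final DMSO typically 0.2%. Viability came from CellTiter-Glo 2.0 luminescence, scaled between the means of blank wells and DMSO wells. A non-linear mixed effects model fitted a two-parameter logistic curve to each dose response to give the single-agent IC50.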

Alisertib = compound: COc1cc(Nc2ncc3c(n2)-c2ccc(Cl)cc2C(c2c(F)cccc2OC)=NC3)ccc1C(=O)O [Alisertib]; details: max 10 µM
In short: as §1

Taselisib = compound: Cc1nc(-c2cn3c(n2)-c2ccc(-c4cnn(C(C)(C)C(N)=O)c4)cc2OCC3)n(C(C)C)n1 [Taselisib]; details: max 10 µM
In short: as §1

AZD1390 = compound: CC(C)n1c(=O)n(C)c2cnc3cc(F)c(-c4ccc(OCCCN5CCCCC5)nc4)cc3c21 [AZD1390]; details: max 0.3 µM
In short: as §1

Prexasertib = compound: COc1cccc(OCCCN)c1-c1cc(Nc2cnc(C#N)cn2)n[nH]1 [Prexasertib]; details: max 1 µM
In short: as §1

AZD8186 = compound: C[C@@H](Nc1cc(F)cc(F)c1)c1cc(C(=O)N(C)C)cc2c(=O)cc(N3CCOCC3)oc12 [AZD8186]; details: max 10 µM
In short: as §1

Carboplatin = compound: C1CC(C1)(C(=O)[O-])C(=O)[O-].N.N.[Pt+2] [Carboplatin]; details: max 10 µM
In short: as §1

Venetoclax = compound: CC1(C)CCC(CN2CCN(c3ccc(C(=O)NS(=O)(=O)c4ccc(NCC5CCOCC5)c([N+](=O)[O-])c4)c(Oc4cnc5[nH]ccc5c4)c3)CC2)=C(c2ccc(Cl)cc2)C1 [Venetoclax]; details: max 1 µM
In short: as §1

Trametinib = compound: CC(=O)Nc1cccc(-n2c(=O)n(C3CC3)c(=O)c3c(Nc4ccc(I)cc4F)n(C)c(=O)c(C)c32)c1 [Trametinib]; details: max 1 µM
In short: as §1

AZD7648 = compound: Cc1cc2ncnn2cc1Nc1ncc2c(n1)n(C1CCOCC1)c(=O)n2C [AZD7648]; details: max 10 µM
In short: as §1

5-Fluorouracil = compound: O=c1[nH]cc(F)c(=O)[nH]1 [5-Fluorouracil]; details: max 20 µM
In short: as §1

[1] = compound: O=C(Nc1ccc2[nH]nc(-c3ccncc3)c2c1)[C@@H]1CCN(CC(=O)N2CCN(c3ccc(-c4ncccn4)cc3)CC2)C1; details: max 5 µM
In short: as §1

Gefitinib = compound: COc1cc2ncnc(Nc3ccc(F)c(Cl)c3)c2cc1OCCCN1CCOCC1 [Gefitinib]; details: max 10 µM
In short: as §1

Etoposide = compound: COc1cc([C@@H]2c3cc4c(cc3[C@@H](O[C@@H]3O[C@@H]5CO[C@@H](C)O[C@H]5[C@H](O)[C@H]3O)[C@H]3COC(=O)[C@H]23)OCO4)cc(OC)c1O [Etoposide]; details: max 10 µM
In short: as §1

MK-2206 = compound: NC1(c2ccc(-c3nc4ccn5c(=O)[nH]nc5c4cc3-c3ccccc3)cc2)CCC1 [MK-2206]; details: max 10 µM
In short: as §1

Crizotinib = compound: C[C@@H](Oc1cc(-c2cnn(C3CCNCC3)c2)cnc1N)c1c(Cl)ccc(F)c1Cl [Crizotinib]; details: max 10 µM
In short: as §1

AZD1775 = compound: C=CCn1c(=O)c2cnc(Nc3ccc(N4CCN(C)CC4)cc3)nc2n1-c1cccc(C(C)(C)O)n1 [AZD1775]; details: max 3 µM
In short: as §1

Savolitinib = compound: C[C@@H](c1ccc2nccn2c1)n1nnc2ncc(-c3cnn(C)c3)nc21 [Savolitinib]; details: max 1 µM
In short: as §1

AZD5153 = compound: COc1nnc2ccc(N3CCC(c4ccc(OCCN5CCN(C)C(=O)[C@H]5C)cc4)CC3)nn12 [AZD5153]; details: max 1 µM
In short: as §1

Selumetinib = compound: Cn1cnc2c(F)c(Nc3ccc(Br)cc3Cl)c(C(=O)NOCCO)cc21 [Selumetinib]; details: max 10 µM
In short: as §1

Olaparib = compound: O=C(c1cc(Cc2n[nH]c(=O)c3ccccc23)ccc1F)N1CCN(C(=O)C2CC2)CC1 [Olaparib]; details: max 10 µM
In short: as §1

AZD4320 = compound: CN(CC[C@H](CSC1=CC=CC=C1)NC2=C(C=C(C=C2)S(=O)(=O)NC(=O)C3=CC=C(C=C3)N4CCC(CC4)[C@H](C5=CC=CC=C5C6=CC=C(C=C6)Cl)O)S(=O)(=O)C(F)(F)F)CCO [AZD4320]; details: max 1 µM
In short: as §1

Gemcitabine = compound: Nc1ccn([C@@H]2O[C@H](CO)[C@@H](O)C2(F)F)c(=O)n1 [Gemcitabine]; details: max 0.3 µM
In short: as §1

AZD6738 = compound: C[C@@H]1COCCN1C2=NC(=NC(=C2)C3(CC3)[S@](=N)(=O)C)C4=C5C=CNC5=NC=C4 [AZD6738]; details: max 10 µM
In short: as §1

AZD5363 = compound: C1CN(CCC1(C(=O)N[C@@H](CCO)C2=CC=C(C=C2)Cl)N)C3=NC=NC4=C3C=CN4 [AZD5363]; details: max 10 µM
In short: as §1

Doxorubicin = compound: COc1cccc2c1C(=O)c1c(O)c3c(c(O)c1C2=O)C[C@@](O)(C(=O)CO)C[C@@H]3O[C@H]1C[C@H](N)[C@H](O)[C@H](C)O1 [Doxorubicin]; details: max 1 µM
In short: as §1

SRA737 = compound: N#Cc1cnc(Nc2cc(NC[C@H]3CNCCO3)c(C(F)(F)F)cn2)cn1 [SRA737]; details: max 10 µM
In short: as §1

Paclitaxel = compound: CC(=O)O[C@H]1C(=O)[C@@]2(C)[C@H]([C@H](OC(=O)c3ccccc3)[C@]3(O)C[C@H](OC(=O)[C@H](O)[C@@H](NC(=O)c4ccccc4)c4ccccc4)C(C)=C1C3(C)C)[C@]1(OC(C)=O)CO[C@@H]1C[C@@H]2O [Paclitaxel]; details: max 3 µM
In short: as §1

Lapatinib = compound: CS(=O)(=O)CCNCc1ccc(-c2ccc3ncnc(Nc4ccc(OCc5cccc(F)c5)c(Cl)c4)c3c2)o1 [Lapatinib]; details: max 10 µM
In short: as §1

AZD2811 = compound: CCN(CCO)CCCOc1ccc2c(Nc3cc(CC(=O)Nc4cccc(F)c4)[nH]n3)ncnc2c1 [AZD2811]; details: max 1 µM
In short: as §1

SN-38 = compound: CCc1c2c(nc3ccc(O)cc13)-c1cc3c(c(=O)n1C2)COC(=O)[C@]3(O)CC [SN-38]; details: max 0.3 µM
In short: as §1

AZD0156 = compound: CN(C)CCCOc1ccc(-c2ccc3ncc4c(c3c2)n(C2CCOCC2)c(=O)n4C)cn1 [AZD0156]; details: max 3 µM
In short: as §1

SG3199 = compound: CC1=CN2[C@@H](C1)C=NC3=CC(=C(C=C3C2=O)OC)OCCCCCOC4=C(C=C5C(=C4)N=C[C@@H]6CC(=CN6C5=O)C)OC [SG3199]; details: max 0.001 µM
In short: as §1

Dasatinib = compound: CC1=C(C(=CC=C1)Cl)NC(=O)C2=CN=C(S2)NC3=CC(=NC(=N3)C)N4CCN(CC4)CCO [Dasatinib]; details: max 2 µM
In short: as §1

Palbociclib = compound: CC(=O)c1c(C)c2cnc(Nc3ccc(N4CCNCC4)cn3)nc2n(C2CCCC2)c1=O [Palbociclib]; details: max 10 µM
In short: as §1

| Cell Line | IC50, cell viability 72 h (AZD5991) [µM] | IC50, cell viability 72 h (Alisertib) [µM] | IC50, cell viability 72 h (Taselisib) [µM] | IC50, cell viability 72 h (AZD1390) [µM] | IC50, cell viability 72 h (Prexasertib) [µM] | IC50, cell viability 72 h (AZD8186) [µM] | IC50, cell viability 72 h (Carboplatin) [µM] | IC50, cell viability 72 h (Venetoclax) [µM] | IC50, cell viability 72 h (Trametinib) [µM] | IC50, cell viability 72 h (AZD7648) [µM] | IC50, cell viability 72 h (5-Fluorouracil) [µM] | IC50, cell viability 72 h [1] [µM] | IC50, cell viability 72 h (Gefitinib) [µM] | IC50, cell viability 72 h (Etoposide) [µM] | IC50, cell viability 72 h (MK-2206) [µM] | IC50, cell viability 72 h (Crizotinib) [µM] | IC50, cell viability 72 h (AZD1775) [µM] | IC50, cell viability 72 h (Savolitinib) [µM] | IC50, cell viability 72 h (AZD5153) [µM] | IC50, cell viability 72 h (Selumetinib) [µM] | IC50, cell viability 72 h (Olaparib) [µM] | IC50, cell viability 72 h (AZD4320) [µM] | IC50, cell viability 72 h (Gemcitabine) [µM] | IC50, cell viability 72 h (AZD6738) [µM] | IC50, cell viability 72 h (AZD5363) [µM] | IC50, cell viability 72 h (Doxorubicin) [µM] | IC50, cell viability 72 h (SRA737) [µM] | IC50, cell viability 72 h (Paclitaxel) [µM] | IC50, cell viability 72 h (Lapatinib) [µM] | IC50, cell viability 72 h (AZD2811) [µM] | IC50, cell viability 72 h (SN-38) [µM] | IC50, cell viability 72 h (AZD0156) [µM] | IC50, cell viability 72 h (SG3199) [µM] | IC50, cell viability 72 h (Dasatinib) [µM] | IC50, cell viability 72 h (Palbociclib) [µM] |
| --- | --- | --- | --- | --- | --- | --- | --- | --- | --- | --- | --- | --- | --- | --- | --- | --- | --- | --- | --- | --- | --- | --- | --- | --- | --- | --- | --- | --- | --- | --- | --- | --- | --- | --- | --- |
| NCI-H28 (Mesothelioma) | > 1 | > 10 | > 10 | > 0.3 | 0.327 | > 10 | > 10 | > 1 | > 1 | > 10 | > 20 | > 5 | > 10 | > 10 | > 10 | > 10 | > 3 | > 1 | > 1 | > 10 | > 10 | > 1 | 0.14 | > 10 | > 10 | > 1 | > 10 | 0.825 | > 10 | > 1 | > 0.3 | > 3 | > 0.001 | 0.304 | > 10 |
| NCI-H69 (Small Cell Lung Carcinoma) | > 1 | 1.11 | 0.546 | > 0.3 | > 1 | > 10 | > 10 | > 1 | > 1 | > 10 | > 20 | > 5 | > 10 | > 10 | 4.55 | 5.7 | 2.37 | > 1 | > 1 | > 10 | > 10 | 0.0595 | > 0.3 | > 10 | > 10 | > 1 | > 10 | 0.00464 | > 10 | 0.342 | 0.123 | > 3 | > 0.001 | > 2 | > 10 |
| NCI-H2461 (Mesothelioma) | > 1 | > 10 | 6.27 | > 0.3 | 0.0482 | > 10 | > 10 | > 1 | > 1 | > 10 | > 20 | > 5 | > 10 | > 10 | > 10 | > 10 | 0.63 | > 1 | > 1 | > 10 | > 10 | > 1 | > 0.3 | 4.16 | > 10 | 0.379 | > 10 | 0.735 | > 10 | > 1 | 0.0918 | > 3 | > 0.001 | > 2 | > 10 |
| NCI-H2795 (Mesothelioma) | 0.974 | 1.3 | 4.73 | > 0.3 | 0.146 | > 10 | > 10 | > 1 | 0.0384 | > 10 | 19.6 | 0.658 | > 10 | 3.82 | > 10 | 7.78 | > 3 | > 1 | 0.84 | 3.14 | > 10 | > 1 | 0.0258 | 9.01 | > 10 | 0.715 | > 10 | 0.0853 | > 10 | > 1 | 0.0169 | > 3 | > 0.001 | 0.578 | > 10 |
| OC-314 (Ovarian Carcinoma) | > 1 | 6.23 | 1.6 | > 0.3 | 0.0394 | 7.39 | > 10 | > 1 | > 1 | > 10 | 17.8 | > 5 | > 10 | 0.876 | > 10 | > 10 | 0.671 | > 1 | 0.0709 | > 10 | > 10 | > 1 | 0.0344 | 2.61 | > 10 | 0.0639 | > 10 | 0.0059 | > 10 | > 1 | 0.00872 | > 3 | > 0.001 | 0.205 | > 10 |
| PCI-30 (Head and Neck Carcinoma) | > 1 | > 10 | > 10 | > 0.3 | 0.074 | > 10 | > 10 | > 1 | > 1 | > 10 | > 20 | > 5 | > 10 | > 10 | > 10 | > 10 | > 3 | > 1 | > 1 | > 10 | > 10 | > 1 | > 0.3 | > 10 | > 10 | > 1 | > 10 | > 3 | > 10 | > 1 | 0.11 | > 3 | > 0.001 | > 2 | > 10 |
